We go through 44 compounds from the PolyMetriX glass transition set.

The compound `*C(=O)OCCCCCCOC(=O)c1ccc(N2C(=O)c3ccc(*)cc3C2=O)cc1` (repeat unit) registered a glass transition temperature of 80.50 °C.

Take `*C(=O)OCCCCCOC(=O)c1ccc(N2C(=O)c3ccc(*)cc3C2=O)cc1` (repeat unit): the glass transition temperature was 90.00 °C.

Regarding `*C(=O)OCCN(CCOC(=O)c1ccc2c(c1)C(=O)N(c1cccc(N3C(=O)c4ccc(*)cc4C3=O)c1)C2=O)c1ccc(/N=N/c2ccc(F)cc2)cc1` (repeat unit), the glass transition temperature stood at 168.00 °C.

As to `*C(=O)OCCOC(=O)c1ccc(*)o1` (repeat unit), the glass transition temperature was 89.0 °C.

Compound `*C(=O)OCCOC(=O)c1ccc(N2C(=O)c3ccc(*)cc3C2=O)cc1` (repeat unit) yielded a glass transition temperature of 280.00 °C.

In turn, `*C(=O)OCCOCCOC(=O)c1ccc(N2C(=O)c3ccc(*)cc3C2=O)cc1` (repeat unit) had a glass transition temperature of 101.00 °C.

Turning to `*CC#CC#CCOc1ccc(C(=O)OCCN(CCOC(=O)c2ccc(O*)cc2)c2ccc([N+](=O)[O-])cc2)cc1` (repeat unit), the glass transition temperature was 100.00 °C.

`*CCCCCCOC(=O)C(C(=O)OCCCCCCOc1ccc(-n2on2-c2ccc(O*)cc2)cc1)c1ccccc1` (repeat unit): the glass transition temperature was 23.00 °C.

In the case of `*CCCCCCOC(=O)C(CCCCCOc1ccc(/N=N/c2ccncc2)cc1)C(=O)OCCCCCCOc1ccc(-c2ccc(O*)cc2)cc1` (repeat unit), the glass transition temperature was found to be 53.60 °C.

Compound `*CCCCCCOC(=O)C(CCCCCP(=O)(O)O)C(=O)OCCCCCCOc1ccc(-n2on2-c2ccc(O*)cc2)cc1` (repeat unit) gave a glass transition temperature of 17.00 °C.

In turn, `*CCCCCCOC(=O)O*` (repeat unit) had a glass transition temperature of -42.00 °C.

In the case of `*CCCCCCOC(=O)OCCCCOC(=O)OCCCCCCOc1ccc(C(=O)c2ccc(O*)cc2)cc1` (repeat unit), the glass transition temperature stood at 2.10 °C.

`*CCCCCCOC(=O)OCCCOC(=O)OCCCCCCOc1ccc(C(=O)c2ccc(O*)cc2)cc1` (repeat unit): the glass transition temperature came out at 16.00 °C.

`*CCCCCCOC(=O)OCCOC(=O)OCCCCCCOc1ccc(C(=O)c2ccc(O*)cc2)cc1` (repeat unit): the glass transition temperature amounted to 15.00 °C.

`*CCCCCCOC(=O)OCCOC(=O)OCCCCCCOc1ccc(Oc2ccc(O*)cc2)cc1` (repeat unit) had a glass transition temperature of -4.00 °C.

As to `*CCCCCCOC(=O)c1ccc(-c2ccc(C(=O)O*)cc2)cc1` (repeat unit), the glass transition temperature turned out to be 51.00 °C.

Compound `*CCCCCCOC(=O)c1ccc2cc(C(=O)O*)ccc2c1` (repeat unit) had a glass transition temperature of 64.00 °C.

`*CCCCCCOc1ccc(-c2ccc(O*)c3ccccc23)c2ccccc12` (repeat unit) showed a glass transition temperature of 109.00 °C.

Take `*CCCCCCOc1ccc(/C=C/c2ccc(O*)c3ccccc23)cc1` (repeat unit): the glass transition temperature came to 78.00 °C.

In the case of `*CCCCCCOc1ccc(CCc2ccc(O*)cc2C)cc1` (repeat unit), the glass transition temperature is 17.90 °C.

Regarding `*CCCCOC(=O)OCCCCCCOC(=O)OCCCCn1c(=O)c2cc3c(=O)n(*)c(=O)c3cc2c1=O` (repeat unit), the glass transition temperature was determined as 37.00 °C.

`*CCCCOC(=O)c1ccc(N/C=N/c2ccc(C(=O)O*)cc2)cc1` (repeat unit) returned a glass transition temperature of 91.00 °C.

On to `*CCCCOC(=O)c1ccc2cc(C(=O)O*)ccc2c1` (repeat unit), for which the glass transition temperature is 66.00 °C.

Compound `*CCCCOc1ccc(C(=O)OCCOC(=O)c2ccc(O*)cc2)cc1` (repeat unit) displayed a glass transition temperature of 53.00 °C.

In turn, `*CCCOC(=O)C(C)O*` (repeat unit) came in with a glass transition temperature of -33.00 °C.

With `*CCCOC(=O)OCCCCCCOC(=O)OCCCn1c(=O)c2cc3c(=O)n(*)c(=O)c3cc2c1=O` (repeat unit), the glass transition temperature came out at 36.00 °C.

With `*CCCOc1ccc(OCCCc2nnc(-c3ccc(-c4nnc(*)o4)cc3)o2)c(C)c1` (repeat unit), the glass transition temperature came out at 112.00 °C.

Turning to `*CCN(CCOC(=O)OCc1ccc(COC(=O)O*)cc1)c1ccc(/N=N/c2ccc([N+](=O)[O-])cc2)cc1` (repeat unit), the glass transition temperature is 138.80 °C.

As for `*CCN(CCOC(=O)c1cc(OCCC2CCN(c3ccc(S(=O)(=O)C(F)(F)C(F)(F)C(F)(F)C(F)(F)C(F)(F)C(F)(F)C(F)(F)C(F)(F)F)cc3)CC2)cc(C(=O)O*)c1)c1ccc(S(=O)(=O)C(F)(F)C(F)(F)C(F)(F)C(F)(F)C(F)(F)C(F)(F)C(F)(F)C(F)(F)F)cc1` (repeat unit), the glass transition temperature turned out to be 86.00 °C.

In turn, `*CCN(CCOC(=O)c1ccc(C(=O)O*)cc1)c1ccc(-c2nc3ccc([N+](=O)[O-])cc3o2)cc1` (repeat unit) returned a glass transition temperature of 208.00 °C.

Take `*CCOCCOC(=O)O*` (repeat unit): the glass transition temperature is -27.00 °C.

In the case of `*CCOCCOC(=O)c1ccccc1-c1ccccc1C(=O)O*` (repeat unit), the glass transition temperature turned out to be 17.00 °C.

Consider `*OC(=O)OCCOCCOCCOC(=O)OC1COC2C(*)COC12` (repeat unit), for which the glass transition temperature was determined as 17.00 °C.

As for `*OCCOC(=O)CCCC(=O)OCCOc1nc(-c2ccc(OCCCC)cc2)nc(*)c1-c1ccc(OC)cc1` (repeat unit), the glass transition temperature was 46.00 °C.

The compound `*OCCOC(=O)CCCCC(=O)OCCOc1nc(-c2ccc(OCCCC)cc2)nc(*)c1-c1ccc(OC)cc1` (repeat unit) registered a glass transition temperature of 34.00 °C.

In the case of `*OCCOC(=O)c1ccc(C(=O)OCCOc2nc(-c3ccc(OCCCC)cc3)nc(*)c2-c2ccc(OC)cc2)cc1` (repeat unit), the glass transition temperature came to 94.00 °C.

In turn, `*OCCOC(=O)c1cccc(C(=O)OCCOc2nc(-c3ccc(OCCCC)cc3)nc(*)c2-c2ccc(OC)cc2)c1` (repeat unit) registered a glass transition temperature of 92.00 °C.

Turning to `*Oc1ccc(-c2ccc(Oc3ccc(C(=O)c4ccc(C(=O)c5ccc(*)c(C(F)(F)F)c5)cc4)cc3C(F)(F)F)cc2)cc1` (repeat unit), the glass transition temperature worked out at 187.00 °C.

For `*Oc1ccc(C(=O)OCCCCCCOC(=O)c2ccc(*)cc2)cc1` (repeat unit), the glass transition temperature was determined as 15.00 °C.

For `*Oc1cccc(N(c2ccccc2)c2ccc(-c3ccc(N(c4ccc(/N=N/c5ccc([N+](=O)[O-])cc5)cc4)c4cccc(OC(=O)OCCOCCOC(*)=O)c4)cc3)cc2)c1` (repeat unit), the glass transition temperature was determined as 111.00 °C.

With `*Oc1cccc(N(c2ccccc2)c2ccc(-c3ccc(N(c4ccccc4)c4cccc(OC(=O)OCCOCCOC(*)=O)c4)cc3)cc2)c1` (repeat unit), the glass transition temperature came out at 113.00 °C.

As to `*c1ccc(Oc2ccc(C(=O)c3ccc(Cc4ccc(C(=O)c5ccc(Oc6ccc(-c7nc(-c8ccccc8)[nH]c7*)cc6)cc5)cc4)cc3)cc2)cc1` (repeat unit), the glass transition temperature amounted to 231.00 °C.

For `*c1ccc(Oc2ccc(C(=O)c3ccc(Oc4ccc(-c5nc(-c6ccc(-c7nc(*)c(-c8ccccc8)[nH]7)cc6)[nH]c5-c5ccccc5)cc4)cc3)cc2)cc1` (repeat unit), the glass transition temperature amounted to 276.00 °C.

Regarding `*c1ccc(Oc2ccc(C(=O)c3ccc(Oc4ccc(C(=O)c5ccc(Oc6ccc(-c7nc(-c8ccccc8)[nH]c7*)cc6)cc5)cc4)cc3)cc2)cc1` (repeat unit), the glass transition temperature came out at 230.00 °C.
